Measurements reported in patent publication US20090136448A1, “Antiviral 2-Carboxy-Thiophene Compounds” (priority 2005, published 2009).

What was measured:
[1] = test system: HCV replication, genotype 1b (Huh-7 HCV replicon cell, sub-line 5-15); test: Replicon ELISA cell based assay, genotype 1b; conditions: Hepatitis C virus, Huh-7 HCV replicon cells, genotype 1b (sub-line 5-15), 72 hours, mean, assayed at least twice
Description: (§1) Replicon ELISA Cell Based Assay
(§2) 100 μL of medium containing 10% FCS were added to each well of clear, flat-bottomed 96 well microplates, excepting wells in the top row. Test compound was diluted in assay medium to twice the final required starting concentration from a 40 mM stock solution in DMSO. 200 μL of the starting dilution were introduced into two wells each in the top row and doubling dilutions made down the plate by the sequential transfer of 100 μL aliquots with thorough mixing in the wells; the final 100 μL were discarded. The two bottom rows were not used for compound dilutions. Huh-7 HCV replicon cell monolayers nearing confluency were stripped from growth flasks with versene-trypsin solution and the cells were resuspended in assay medium at either 2×10^5 cells/mL (sub-line 5-15; genotype 1b; Lohmann, V., Korner, F., Koch, J-O., Herian, U., Thielmann, L. and Bartenschlager, R., Science, 1999, 285, 110-113) or at 3×10^5 cells/mL (genotype 1a; Gu, B., Gates, A. T., Isken, O., Behrens, S. E. and Sarisky, R. T., J. Virol., 2003, 77, 5352-5359). 100 μL of cell suspension were added to all wells and the plates incubated at 37° C. for 72 hours in a 5% CO2 atmosphere.
(§3) Following incubation, the assay medium was aspirated from the plates. The cell sheets were washed by gentle immersion in phosphate buffered saline (PBS), which was then aspirated off, and fixed with acetone:methanol (1:1) for 5 minutes. Following a further wash with PBS, 100 μL of ELISA diluent (PBS+0.05% v/v Tween 20+2% w/v skimmed milk powder) were added to all wells and the plates incubated at 37° C. for 30 minutes on an orbital platform. The diluent was removed and each well then received 50 μL of a 1/200 dilution of anti-HCV specific, murine, monoclonal antibody (either Virostat #1872 or #1877), except for wells in one of the compound-free control rows which received diluent alone to act as negative controls. The plates were incubated at 37° C. for 2 hours and washed 3 times with PBS/0.05% Tween 20, then 50 μL of horseradish peroxidase conjugated, anti-mouse, rabbit polyclonal serum (Dako #P0260), diluted 1/1000, were added to all wells. The plates were incubated for a further hour, the antibody removed and the cell sheets washed 5 times with PBS/Tween and blotted dry. The assay was developed by the addition of 50 μL of ortho-phenylenediamine/peroxidase substrate in urea/citrate buffer (SigmaFast, Sigma #P-9187) to each well, and colour allowed to develop for up to 15 minutes. The reaction was stopped by the addition of 25 μL per well of 2 M sulphuric acid and the plates were read at 490 nm on a Fluostar Optima spectrophotometer.
(§4) The substrate solution was removed and the plates were washed in tap water, blotted dry and the cells stained with 5% carbol fuchsin in water for 30 minutes. The stain was discarded and the cell sheets washed, dried and examined microscopically to assess cytotoxicity.
(§5) The absorbance values from all compound-free wells that had received both primary and secondary antibodies were averaged to obtain a positive control value. The mean absorbance value from the compound-free wells that had not received the primary antibody was used to provide the negative (background) control value. The readings from the duplicate wells at each compound concentration were averaged and, after the subtraction of the mean background from all values, were expressed as a percentage of the positive control signal. The quantifiable and specific reduction of expressed protein detected by the ELISA in the presence of a drug can be used as a measure of replicon inhibition. GraFit software (Erithacus Software Ltd.) was used to plot the curve of percentage inhibition against compound concentration and derive the 50% inhibitory concentration (IC50) for the compound.

[2] = test system: HCV replication, genotype 1a (Huh-7 HCV replicon cell); test: Replicon ELISA cell based assay, genotype 1a; conditions: Hepatitis C virus, Huh-7 HCV replicon cells, 72 hours, mean, assayed at least twice
Description: as §1, §2, §3, §4, §5

Row | SMILES | IC50 [1] [nM] | IC50 [2] [nM]
1 | CC(C)N(C(=O)c1ccc(Cl)cc1Cl)c1cc(-c2ccc(-c3nnn[nH]3)cc2)sc1C(=O)O [Compound F, 3-[[(2,4-Dichlorophenyl)carbonyl](1-methylethyl)amino]-5-[4-(1H-tetrazol-5-yl)phenyl]-2-thiophenecarboxylic acid, reference compound] | > 5000 | 1000 to 5000
2 | CC(C)N(c1cc(-c2ccc(-c3nc4cc(N)ccc4o3)cc2)sc1C(=O)O)C(=O)[C@H]1CC[C@H](C)CC1 [Example 10, 5-[4-(5-Amino-1,3-benzoxazol-2-yl)phenyl]-3-[[(trans-4-methylcyclohexyl)carbonyl](1-methylethyl)amino]-2-thiophenecarboxylic acid] | 100 to 500 | 50 to 100
3 | CC(C)N(c1cc(-c2ccc(-c3nc4ccc(N)cc4o3)cc2)sc1C(=O)O)C(=O)[C@H]1CC[C@H](C)CC1 [Example 23, 5-[4-(6-Amino-1,3-benzoxazol-2-yl)phenyl]-3-[[(trans-4-methylcyclohexyl)carbonyl](1-methylethyl)amino]-2-thiophenecarboxylic acid] | 10 to 50 | 50 to 100
4 | CC(C)N(c1cc(-c2coc(-c3nc4ccccc4o3)c2)sc1C(=O)O)C(=O)[C@H]1CC[C@H](C)CC1 [Example 31, 5-[5-(1,3-Benzoxazol-2-yl)-3-furanyl]-3-[[(trans-4-methylcyclohexyl)carbonyl](1-methylethyl)amino]-2-thiophenecarboxylic acid] | 100 to 500 | 100 to 500
5 | CC(C)N(c1cc(-c2ccc(-c3cn4ccccc4n3)cc2)sc1C(=O)O)C(=O)[C@H]1CC[C@H](C)CC1 [Example 3, 5-(4-Imidazo[1,2-a]pyridin-2-ylphenyl)-3-[[(trans-4-methylcyclohexyl)carbonyl](1-methylethyl)amino]-2-thiophenecarboxylic acid] | 10 to 50 | 50 to 100
6 | CC(C)N(c1cc(-c2ccc(-c3cc4ncccc4o3)nc2)sc1C(=O)O)C(=O)[C@H]1CC[C@H](C)CC1 [Example 18, 5-(6-Furo[3,2-b]pyridin-2-yl-3-pyridinyl)-3-[[(trans-4-methylcyclohexyl)carbonyl](1-methylethyl)amino]-2-thiophenecarboxylic acid] | 10 to 50 | 50 to 100
7 | CC(C)N(c1cc(-c2ccc(-c3nc4ncccc4o3)cc2)sc1C(=O)O)C(=O)[C@H]1CC[C@H](C)CC1 [Example 8, 3-[[(4-Methylcyclohexyl)carbonyl](1-methylethyl)amino]-5-(4-[1,3]oxazolo[4,5-b]pyridin-2-ylphenyl)-2-thiophenecarboxylic acid] | 10 to 50 | 10 to 50
8 | CC(C)N(c1cc(-c2ccc(-c3cn4ccsc4n3)cc2)sc1C(=O)O)C(=O)[C@H]1CC[C@H](C)CC1 [Example 4, 5-(4-Imidazo[2,1-b][1,3]thiazol-6-ylphenyl)-3-[[(trans-4-methylcyclohexyl)carbonyl](1-methylethyl)amino]-2-thiophenecarboxylic acid] | 10 to 50 | 50 to 100
9 | CC(C)N(C(=O)[C@H]1CC[C@H](C)C[C@H]1O)c1cc(-c2ccc(-c3cc4ncccn4n3)cc2)sc1C(=O)O [Example 39, 3-[{[(1S,2R,4S)-2-Hydroxy-4-methylcyclohexyl]carbonyl}(1-methylethyl)amino]-5-(4-pyrazolo[1,5-a]pyrimidin-2-ylphenyl)-2-thiophenecarboxylic acid] | 5 to 10 | 10 to 50
10 | CC(C)N(c1cc(-c2ccc(-c3cc4ncccc4o3)cc2)sc1C(=O)O)C(=O)[C@H]1CC[C@H](C(F)(F)F)CC1 [Example 22, 5-(4-Furo[3,2-b]pyridin-2-ylphenyl)-3-((1-methylethyl){[trans-4-(trifluoromethyl)cyclohexyl]carbonyl}amino)-2-thiophenecarboxylic acid] | 50 to 100 | 50 to 100
11 | CC(C)N(c1cc(-c2ccc(-c3cn4ccsc4n3)cc2)sc1C(=O)O)C(=O)[C@H]1CC[C@H](C(F)(F)F)CC1 [Example 21, 5-(4-Imidazo[2,1-b][1,3]thiazol-6-ylphenyl)-3-((1-methylethyl){[trans-4-(trifluoromethyl)cyclohexyl]carbonyl}amino)-2-thiophenecarboxylic acid] | 100 to 500 | 50 to 100
12 | CC(C)N(c1cc(-c2ccc(-c3cn4ccccc4n3)cc2)sc1C(=O)O)C(=O)[C@H]1CC[C@H](C(F)(F)F)CC1 [Example 14, 5-(4-Imidazo[1,2-a]pyridin-2-ylphenyl)-3-((1-methylethyl){[trans-4-(trifluoromethyl)cyclohexyl]carbonyl}amino)-2-thiophenecarboxylic acid] | 500 to 1000 | 100 to 500
13 | CC(C)N(c1cc(-c2ccccc2)sc1C(=O)O)C(=O)[C@H]1CC[C@H](C)CC1 [Compound A, 5-Phenyl-3-[[(trans-4-methylcyclohexyl)carbonyl](1-methylethyl)amino]-2-thiophenecarboxylic acid, reference compound] | 100 to 500 | 1000 to 5000
14 | CC(C)N(c1cc(-c2ccc(-c3cc4cccnn4n3)cc2)sc1C(=O)O)C(=O)[C@H]1CC[C@H](C)CC1 [Example 24, 3-[[(trans-4-Methylcyclohexyl)carbonyl](1-methylethyl)amino]-5-(4-pyrazolo[1,5-b]pyridazin-2-ylphenyl)-2-thiophenecarboxylic acid] | 10 to 50 | 100 to 500
15 | CC(C)N(c1cc(-c2ccc(-c3nc4ncccc4o3)nc2)sc1C(=O)O)C(=O)[C@H]1CC[C@H](C)CC1 [Example 46, 3-[[(trans-4-Methylcyclohexyl)carbonyl](1-methylethyl)amino]-5-(6-[1,3]oxazolo[4,5-b]pyridin-2-yl-3-pyridinyl)-2-thiophenecarboxylic acid] | 100 to 500 | 100 to 500
16 | CC(C)N(c1cc(-c2ccc(-c3cc4ncccc4o3)s2)sc1C(=O)O)C(=O)[C@H]1CC[C@H](C)CC1 [Example 43, 5′-Furo[3,2-b]pyridin-2-yl-4-[[(trans-4-methylcyclohexyl)carbonyl](1-methylethyl)amino]-2,2′-bithiophene-5-carboxylic acid] | 50 to 100 | 500 to 1000
17 | CC(C)N(c1cc(-c2ccc(-c3ccn4nccc4n3)cc2)sc1C(=O)O)C(=O)[C@H]1CC[C@H](C)CC1 [Example 17, 3-[[(trans-4-Methylcyclohexyl)carbonyl](1-methylethyl)amino]-5-(4-pyrazolo[1,5-a]pyrimidin-5-ylphenyl)-2-thiophenecarboxylic acid] | 100 to 500 | 100 to 500
18 | CC(C)N(c1cc(-c2ccc(-c3cc4cnccc4o3)cc2)sc1C(=O)O)C(=O)[C@H]1CC[C@H](C)CC1 [Example 12, 5-(4-Furo[3,2-c]pyridin-2-ylphenyl)-3-[[(trans-4-methylcyclohexyl)carbonyl](1-methylethyl)amino]-2-thiophenecarboxylic acid] | 50 to 100 | 100 to 500
19 | CC(C)N(c1cc(-c2ccc(-c3nc4cccnc4o3)cc2)sc1C(=O)O)C(=O)[C@H]1CC[C@H](C)CC1 [Example 11, 3-[[(4-Methylcyclohexyl)carbonyl](1-methylethyl)amino]-5-(4-[1,3]oxazolo[5,4-b]pyridin-2-ylphenyl)-2-thiophenecarboxylic acid] | 100 to 500 | 100 to 500
20 | CC(C)N(c1cc(-c2ccc(-c3ccc4[nH]ccc4c3)cc2)sc1C(=O)O)C(=O)[C@H]1CC[C@H](C)CC1 [Example 41, 5-[4-(1H-Indol-5-yl)phenyl]-3-[[(trans-4-methylcyclohexyl)carbonyl](1-methylethyl)amino]-2-thiophenecarboxylic acid] | 50 to 100 | 100 to 500
